# Assay results: US12403184B2, “Compositions and methods for treating neurodegenerative disroders” (priority 2018, dated 2025)
# Where no end group is shown, it is not given here.
# How the values were obtained:
# HdhQ7 and HdhQ111 cells = test: Mitochondrial respiratory activity (Seahorse analyzer); type: cell-based, mouse
# Experimental: Mitochondrial respiration activity in HdhQ7 and HdhQ111 cells was analyzed using a Seahorse Bioscience XFp Extracellular Flux Analyzer. The cells were seeded in XFp […] microplates at 6,000 cells per well in 50 μl of growth medium. One hour prior to measuring oxygen consumption, the cell culture media was replaced with XF assay medium and maintained in a non-CO2 incubator for 1 h. The sensor cartridges were placed in the XFp Analyzer according to the manufacturer's instructions for the Mito Stress Test kit. In brief, mitochondrial function was determined by the sequential injection of oligomycin A (2.5 μg/mL), FCCP (1 μM), and antimycin A (4 μM). Following each experiment, the total cellular number of each well was determined using DAPI staining.
# HD R6/2 mice = test: Striatal neuropathology in R6/2 mice (DARPP-32 immunohistochemistry, Golgi-Cox staining, striatum volume); type: in vivo, mouse
# Experimental: Mice were deeply anesthetized and transcardially perfused with 4% paraformaldehyde in PBS. Brains were processed for paraffin embedment. Brain sections (10 μm, coronal) were used for immunohistochemical localization of DARPP-32 (1:500, Abcam) or ATAD3A (1:200, Genetex) using the IHC Select HRP/DAB kit (Millipore). Quantitation of DARPP-32 immunostaining was conducted using NIH image J software. The same image exposure times and threshold settings were used for sections from all treatment groups. An experimenter blinded to the experimental groups conducted the quantitation.
# Coronal sections (10 μm) spaced 200 μm apart throughout the striatum will be stained with anti-NeuN (Sigma, MAB377, 1:200 dilution) antibody followed by secondary antibodies and detection with diaminobenzidine (DAB, Pierce). The perimeter of the striatum will be traced in each of the serial sections using a ×2 objective. For the volume estimation, consecutive sections (an average of 10-15 sections/animal) will be visualized and the perimeter of the striatum will be outlined. The striatal volume will be estimated by multiplying the sum of all the sectional areas (mm2) by the distance between successive sections (200 μm).
# Dendrite morphology of medium spiny neurons in wildtype and HD R6/2 mice was analyzed by Golgi-Cox staining using Novaultra Golgi-Cox Stain Kit (IHCWorld, SKU IW-3023). Briefly, mice were deeply anesthetized and transcardially perfused with 4% paraformaldehyde in PBS. After thoroughly washing with PBS overnight, mouse brains were immersed in the Golgi-Cox solution in dark at room temperature, then replaced with fresh Golgi-Cox Solution after 2 days of immersion and continued the impregnation at room temperature in dark for 14 days following the manufactory instruction. After washing with PBS for 2 days, serial coronal sections of 200 μm thick were cut on Vibratome Series 1000 Sectioning System. […] Total dendritic length per neuron was measured using NIH Image J plug-in simple neurite tracer.
# Drp1/ATAD3A = target: T1, Drp1/ATAD3A (Mus musculus, UniProt Q925I1); test: Immunoprecipitation of Drp1/ATAD3A binding in striatal extracts of treated HD R6/2 mice; type: in vivo; details: striatal extracts of HD R6/2 mice, 1 mg/kg/day from 6 to 12 weeks
# T1 construct: The total lysates of cells or mouse striatum were subject to IP analysis; endogenous in cells; host or cells: HdhQ7 / HdhQ111 mouse striatal cells; wild-type mouse striatal cells exposed to 3-NP
# T1 sequence (Q925I1 2-591 limits assumed): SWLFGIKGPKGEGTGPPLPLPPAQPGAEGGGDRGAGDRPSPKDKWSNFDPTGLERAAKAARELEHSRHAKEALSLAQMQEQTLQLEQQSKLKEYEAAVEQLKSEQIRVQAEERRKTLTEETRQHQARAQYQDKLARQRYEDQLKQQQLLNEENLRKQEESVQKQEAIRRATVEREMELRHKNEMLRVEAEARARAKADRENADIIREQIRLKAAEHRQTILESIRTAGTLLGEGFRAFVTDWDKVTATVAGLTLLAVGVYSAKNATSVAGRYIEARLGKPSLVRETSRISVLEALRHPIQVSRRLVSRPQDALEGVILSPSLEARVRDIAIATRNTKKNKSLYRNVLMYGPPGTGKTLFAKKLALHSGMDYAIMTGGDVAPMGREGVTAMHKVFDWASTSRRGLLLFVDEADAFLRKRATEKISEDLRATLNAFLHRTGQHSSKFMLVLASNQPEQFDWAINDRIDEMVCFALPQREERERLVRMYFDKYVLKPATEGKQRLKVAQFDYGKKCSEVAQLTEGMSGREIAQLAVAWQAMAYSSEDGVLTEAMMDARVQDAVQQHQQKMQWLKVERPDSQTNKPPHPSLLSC
# Experimental: Cells and mouse brain tissues were harvested and lysed in total lysis buffer ([…], pH 7.9, […], […], 1% Triton X-100, and protease inhibitor cocktail) for 30 mins on ice and centrifuged at 12,000×g for 10 min at 4° C. The supernatants were incubated with the indicated primary antibodies or control IgG (sc-2025 and sc-2027, Santa Cruz Biotechnology) overnight at 4° C., followed by incubation with protein A/G beads (sc-2003, Santa Cruz Biotechnology) for 2 h at 4° C. The immunoprecipitates were washed with lysis buffer three times for a total of 30 min and then subject to WB analysis.
# Systemic peptide treatment in HD mice. All randomization and peptide treatments were prepared by an experimenter not associated with behavioral and neuropathology analysis. Male R6/2 mice (Tg) and their age-matched wild-type littermates (Wt) (6-week-old) were implanted with a 28-day osmotic pump (Alzet, Cupertino CA, Model 2004) containing TAT control peptide or DA1 peptide, which delivered peptides at a rate of 1 mg/kg/day. Male YAC128 mice (Tg) and their age-matched wild-type littermates (WT) were treated with TAT control peptide or DA1 peptide (1 mg/kg/day) by Alzet osmotic pump starting from the age of 3 months. The pump was replaced once every month.
# mtDNA = test: Measurement of mtDNA lesion by quantitative PCR; type: cell-based, mouse; details: HdhQ111 cells, relative to TAT
# Text: Because the movement of the polymerase on the template is blocked at a lesion, qPCR amplification is inversely proportional to the presence of DNA damage. The level of mtDNA lesion will be calculated by comparing the 10 kb mtDNA fragment amplification, as described previously. To correct for the possible variations in the rate of mtDNA replication, the amplification of 10 kb mtDNA fragment was normalized to the 91 bp small mtDNA amplicon. Specifically, Total DNA was isolated as shown above. The amplification profile consisted of a 45-s denaturation at 94° C., 22 cycles of denaturation for 15 s at 94° C., annealing/extension at 64° C. for 12 min, and a final extension at 72° C. for 10 min.
substance,measurement,setting,value
"YGRKKRRQRRRGGEDKRKT-NH2 [DA1, YGRKKRRQRRR-GG-EDKRKT-NH2]",mitochondrial respiratory activity,HdhQ7 and HdhQ111 cells; HdhQ7 cells,minor effects
same,ATP production,HdhQ7 and HdhQ111 cells; HdhQ111 cells,improved
same,maximal respiratory capacity,HdhQ7 and HdhQ111 cells; HdhQ111 cells,improved
same,spare respiratory capacity,HdhQ7 and HdhQ111 cells; HdhQ111 cells,improved
same,mitochondrial respiratory defects,"HdhQ7 and HdhQ111 cells; HdhQ111 cells, 1 μM/day for 4 days",attenuated
same,dendritic morphology of MSN (Golgi-Cox staining),HD R6/2 mice,improved
same,striatum volume,HD R6/2 mice,increased
same,area occupied by DARPP-32-immunostained cells in the striatum,HD R6/2 mice; 12 weeks old,increased
same,binding of Drp1/ATAD3A,Drp1/ATAD3A,significantly reduced
same,mtDNA lesion,mtDNA,diminished
